Patent publication US20250171434A1, “SEC61 INHIBITORS AND USE THEREOF” (KEZAR LIFE SCIENCES, INC., priority 2022, published 2025)

How the values were obtained:
CD47(ss + 10)Gluc = experiment: Dox-Induced CD47-ss-Gluc Assay; type: cell-based; conditions: Flp-In 293 T-REx cells, 24 hours with doxycycline; Table 1; read-out: 24 hr Dox Inducible CD47(ss + 10)Gluc 293FRT/TO: Mean IC50
[1] = system: IL-2-FL/Gaussia Luciferase; experiment: Dox Inducible IL2-FL-Gluc Assay; type: cell-based; conditions: Table 1; for IC50: Flp-In 293 T-REx cells, 24 hours with doxycycline, read-out: 24 hr Dox Inducible IL2FLGluc 293FRT/TO: Mean IC50; for 24 hr Dox Inducible IL2FLGluc 293FRT/TO: IL2/PD1: ratio of IC50s IL2/PD1
Description: (§1) Flp-In 293 T-REx™ cells were transfected with pcDNA™5/FRT/TO plasmid inserted with cDNA encoding Gaussia Luciferase fused to the 3′ end of cDNA encoding full length IL-2 (amino acids 1-153). Transfected cells were selected for resistance to the selectable markers Hygromycin and Blasticidin to create a stable cell line that contained the IL-2-FL/Gaussia Luciferase cDNA insert whose expression was regulated under the T-REx™ system. The day before assay, cells were trypsinized and plated in 384-well tissue culture plates. The next day, compound dilutions in DMSO/media containing doxycycline were added to the wells and incubated at 37° C., 5% CO2.
(§2) For chemical structures that include one or more stereoisomers, but are illustrated without indicating stereochemistry, the assay data refers to a mixture of stereoisomers.

[2] = system: multiple myeloma cell line U266B1; experiment: U266 Cell Viability Assay; type: cell-based; conditions: Homo sapiens, U-266; U266B1 cells, 48 hours, Celltiter-Glo; read-out: 48 hr U266 Viability Celltiter-Glo: Mean EC50
Experimental: (§3) The human multiple myeloma cell line U266B1 was cultured in RPMI 1640 media supplemented with 10% fetal bovine serum, 2 mM Glutamine, and 1× Penicillin/Streptomycin. Cells were plated in 384-well tissue culture plates and treated with compound dilutions in DMSO/media. Plates were incubated at 37° C., 5% CO2 for 48 hours. After 48 hours, Celltiter-Glo® (Promega) was added to each well and luciferase signal was quantified using Tecan Infinite M1000 Pro for cell viability determination.
as §2

[3] = Liver Microsome Stability Assay, rat; type: in vitro ADME; conditions: rat liver microsomes 1.0 mg/mL, 1.0 uM compound, 37° C., 1 mM NADPH
Experimental: (§4) Stability of a compound was assessed in the presence of liver microsomes from various sources—mouse, rat, monkey and human liver microsomes. 1.0 uM compound, 0.4% DMSO in 0.1 M Potassium Phosphate with 1.0 mg/mL liver microsomes, were incubated at 37° C. with or without 1 mM NADPH. The samples were quenched at 0, and 30 minutes.

[4] = system: multiple myeloma cell line NCI-H929; experiment: H929 Cell Viability Assay; type: cell-based, human; conditions: Homo sapiens; NCI-H929 cells, 48 hours, Celltiter-Glo; read-out: 48 hr H929 Viability Celltiter-Glo: Mean EC50
Experimental: as §3, with “NCI-H929” for “U266B1”, “cultured in Advanced RPMI 1640 media (Gibco®) supplemented with 6% fetal bovine serum, 2 mM Glutamine, and 1× Penicillin/Streptomycin. On the day of assay, cells were resuspended” for “cultured”, “Penicillin/Streptomycin and” for “Penicillin/Streptomycin. Cells were”
as §2

[5] = system: IL6R-ss+10aa/Gaussia Luciferase; experiment: Dox-induced IL-6R-ss-Gluc Assay; type: cell-based; conditions: Table 1; for IC50: Flp-In 293 T-REx cells, 24 hours with doxycycline, read-out: 24hr Dox Inducible IL6R(ss + 10)Gluc 293FRT/TO: Mean IC50; for 24hr Dox Inducible IL6R(ss + 10)Gluc 293FRT/TO: IL6R/PD1: ratio of IC50s IL6R/PD1
Description: as §1, with “pcDNATM5/FRT/TO” for “pcDNA™5/FRT/TO”, “IL6R signal sequence plus 10 amino” for “full length IL-2 (amino”, “(N-[…]-C).” for “1-153).”, “IL6R-ss+10aa/Gaussia” for “IL-2-FL/Gaussia”
as §2

[6] = Liver Microsome Stability Assay, human; type: in vitro ADME; conditions: human liver microsomes 1.0 mg/mL, 1.0 uM compound, 37° C., 1 mM NADPH
Experimental: as §4

[7] = Liver Microsome Stability Assay, mouse; type: in vitro ADME; conditions: mouse liver microsomes 1.0 mg/mL, 1.0 uM compound, 37° C., 1 mM NADPH
Experimental: as §4

[8] = system: PD1-ss+10aa/Gaussia Luciferase; experiment: Dox-Induced PD1-ss-Gluc Assay; type: cell-based; conditions: Flp-In 293 T-REx cells, 24 hours with doxycycline; Table 1; read-out: 24 hr Dox Inducible PD1ssGluc 293FRT/TO: Mean IC50
Description: as §1, with “PD1 signal sequence plus 10 amino” for “full length IL-2 (amino”, “(N-[…]-C) (SEQ ID NO: 1).” for “1-153).”, “PD1-ss+10aa/Gaussia” for “IL-2-FL/Gaussia”
as §2

[9] = Liver Microsome Stability Assay, monkey; type: in vitro ADME; conditions: monkey liver microsomes 1.0 mg/mL, 1.0 uM compound, 37° C., 1 mM NADPH
Experimental: as §4

Structure (SMILES) | IC50 (CD47(ss + 10)Gluc) [nM] | IC50 [1] [nM] | 24 hr Dox Inducible IL2FLGluc 293FRT/TO: IL2/PD1 [1] | EC50 [2] [nM] | Liver Microsome Stability (Multiple Species): Rat - % Remaining after 30 min w/ NADPH (%) [3] [%] | EC50 [4] [nM] | IC50 [5] [nM] | 24hr Dox Inducible IL6R(ss + 10)Gluc 293FRT/TO: IL6R/PD1 [5] | Liver Microsome Stability (Multiple Species): Human - % Remaining after 30 min w/ NADPH (%) [6] [%] | Liver Microsome Stability (Multiple Species): Mouse - % Remaining after 30 min w/ NADPH (%) [7] [%] | IC50 [8] [nM] | Liver Microsome Stability (Multiple Species): Monkey - % Remaining after 30 min w/ NADPH (%) [9] [%]
CC(C)n1cnc(/C=C/c2csc(NC(=O)c3cc(OC(F)F)cn3Cc3ccnc(F)c3)n2)c1Cl [Compound A7, (E)-N-(4-(2-(5-chloro-1-isopropyl-1H-imidazol-4-yl)vinyl)thiazol-2-yl)-4-(difluoromethoxy)-1-((2-fluoropyridin-4-yl)methyl)-1H-pyrrole-2-carboxamide] | 2100 | 2700 | 200 | > 25000 | 84 | 19500 | 2430 | 176 | 64 | 82 | 14 | 55
O=C(Nc1nc(/C=C/c2ncoc2C(F)(F)F)cs1)c1cc(Cl)cn1Cc1ccnc(F)c1 [Compound A8, (E)-4-chloro-1-((2-fluoropyridin-4-yl)methyl)-N-(4-(2-(5-(trifluoromethyl)oxazol-4-yl)vinyl)thiazol-2-yl)-1H-pyrrole-2-carboxamide] | 1740 | 1820 | 14 | 12800 | 47 | 7440 | 1960 | 15 | 72 | 86 | 129 | 68
COc1cc(C(=O)Nc2nc(/C(F)=C/c3cn(C(C)C)cn3)cs2)n(Cc2ccnc(F)c2)c1 [Compound A9, (Z)-N-(4-(1-fluoro-2-(1-isopropyl-1H-imidazol-4-yl)vinyl)thiazol-2-yl)-1-((2-fluoropyridin-4-yl)methyl)-4-methoxy-1H-pyrrole-2-carboxamide] | > 25000 | > 25000 |  | > 25000 | 66 | > 25000 | > 25000 |  | 11 | 64 | > 25000 | 9
CC(C)n1cnc(/C=C/c2csc(NC(=O)c3cc(Cl)cn3Cc3ccnc(F)c3)n2)c1C(F)(F)F [Compound A10, (E)-4-chloro-1-((2-fluoropyridin-4-yl)methyl)-N-(4-(2-(1-isopropyl-5-(trifluoromethyl)-1H-imidazol-4-yl)vinyl)thiazol-2-yl)-1H-pyrrole-2-carboxamide] | 933 | 1070 | 97 | > 25000 | 77 | 5450 | 1060 | 96 | 27 | 87 | 11 | 38
[2H]C([2H])(c1ccnc(F)c1)n1cc(Cl)cc1C(=O)Nc1nc(/C=C/c2ncn(C3CC3)c2Cl)cs1 [Compound A11, (E)-4-chloro-N-(4-(2-(5-chloro-1-cyclopropyl-1H-imidazol-4-yl)vinyl)thiazol-2-yl)-1-((2-fluoropyridin-4-yl)methyl-d2)-1H-pyrrole-2-carboxamide] | 1460 | 1180 | 110 | > 25000 | 17 | 11900 | 1200 | 112 | 14 | 87 | 11 | 6
COc1cc(C(=O)Nc2nc(/C=C/c3ncn(C4CC4)c3Cl)cs2)n(Cc2ccnc(F)c2)c1 [Compound A13, (E)-N-(4-(2-(5-chloro-1-cyclopropyl-1H-imidazol-4-yl)vinyl)thiazol-2-yl)-1-((2-fluoropyridin-4-yl)methyl)-4-methoxy-1H-pyrrole-2-carboxamide] | 2030 | 2310 | 440 | > 25000 | 62 | > 25000 | 2560 | 489 | 48 | 16 | 5 | 9
[2H]C([2H])(c1ccnc(F)c1)n1cc(OC)cc1C(=O)Nc1nc(/C=C/c2ncn(C3CC3)c2Cl)cs1 [Compound A14, (E)-N-(4-(2-(5-chloro-1-cyclopropyl-1H-imidazol-4-yl)vinyl)thiazol-2-yl)-1-((2-fluoropyridin-4-yl)methyl-d2)-4-methoxy-1H-pyrrole-2-carboxamide] | 3310 | 3440 | 520 | > 25000 | 20 | > 25000 | 2110 | 318 | 29 | 76 | 7 | 4
